Common to all, as to format: cell-based
In assay [1] the test system is Akt (Ser473) activation in washed human platelets. The assay is described as follows: Activation of Akt in human platelets. The following applies: TPO 100 ng/mL; for Akt activation (phosphorylation), agent alone: 15 minutes alone, Compound A (SB) 10 mM, phosphorylation-specific antibodies, Blot 1. The protocol: Washed human platelets from healthy volunteers were treated with vehicle (V) [0.33% DMSO], 100 ng/mL TPO [recombinant human thrombopoietin obtained from R&D Systems, Inc., Minneapolis, Minn., USA, or SB (SB=Compound A in Blot 1) (10 mM) for 15 minutes alone, or 13 minutes alone followed by 2 minutes with 1 mM ADP (+ADP). Protein extracts were probed for Akt (Ser473) activation. Results are representative of 3 individual experiments.
Compound A was compared to TPO in human platelets through the examination of a signal transduction pathway known to be activated through TPOR [TPO receptor] stimulation; specifically, Pi3K/Akt pathway activation [Chen, J., et al., Blood, 86, 4054-4062 (1995); Kojima, H., et al., Thrombosis & Haemostassis, 74, 1541-1545 (1995); Ezumi, Y., et al., FEBS Letters, 374, 48-52 (1995)].

For a further assay, the system named is HepG2 cells. The assay is described as follows: Liver Cancer Assay (CellTiter Glo). The following applies: Homo sapiens, HepG2, 72 hours, n=4 wells, read-out: IC50, decrease in the number of viable cells. The protocol:
HepG2 is a human hepatocellular carcinoma cell line. Active cell determinations were performed on HepG2 cells by plating 2×10^4 cells/mL in 96-well plates in culture medium containing 10% FBS and incubating overnight in 5% CO2 at 37°. Cells were then treated with Compound A at 0, 0.1, 0.4, 1, 4, 10, 40 ug/mL and incubated for 72 hours. Cell proliferation was measured using the CellTiter Glo (Promega) reagent according to the manufacturer's protocol. Data is the mean of n=4 wells reported as the percent of the control (0 ug/mL of Compound A). Compound A induced a decrease in the number of viable cells with an IC50 of approximately 6 ug/mL.

For assay [2], the system named is RPMI-8226 Plasmacytoma cells. The assay is described as follows: Cancer Proliferation Assay (3H-thymidine uptake), RPMI-8226. The following applies: Homo sapiens; RPMI-8226, 3 days, 3H-TdR uptake. The protocol: (§1) Flat-bottom 96-well microtiter tissue culture plates (Costar, Cambridge, Mass.) were used for the assay. Cultures were performed in replicates of 4 wells; each well contained 1×10^4 cells. Six concentrations of Compound A (ranging from 40 μg/mL to 100 ng/mL) were tested in the absence and presence of 10 ng/mL G-CSF, 100 ng/mL of TPO or 5 U/mL of EPO. Cells were also tested in medium alone, G-CSF alone, TPO alone, or EPO alone to establish 100% of control values. The final volume in each well was 200 μL. Plates were placed in a humidified 5% CO2 incubator at 37° C. for 3 days. Proliferation was measured by the uptake of tritiated thymidine (^3H-TdR) by pulsing wells with 1 μCi of ^3H-TdR for the final 18 hours of incubation, harvesting the plate on a Brandel 96-well cell harvester (Gaithersburg, Md.) and measuring radioactivity on the filter mats in a Wallac 1450 Microbeta TriLux scintillation counter (Turku, Finland). The effect of Compound A was determined by comparing the results of cells treated with test compound with control cells (100% of control).

A further assay concerns EKVX (NSCLC). As to the kind of experiment: Solid Tumor Cell Line Proliferation Assay, EKVX. To be noted: Homo sapiens, 72 hr, Cell Titer Glo. The protocol:
(§2) Cells in log phase growth were seeded in a 96-well plate at 2500 cells/well in 50 uL medium and incubated at 37° C., 5% CO2 overnight. Compound A was diluted in medium and added at 0.1, 0.4, 1, 4, 10 and 40 ug/mL. Following a 72 hr incubation at 37° C., 5% CO2. The CellTiter-Glo Luminescent Cell Viability Assay (ProMega Corp) was performed according to the manufacturer's instructions. Briefly following a 30 min room temperature incubation 100 uL CELLTiter Glo reagent was added to each well and mixed for 2 minutes. Luminescence was recorded following a 10 minute room temperature incubation using a PerkinElmer Microbeta luminescence counter. IC50 was determined by EXCel Fit 4.2.1.
For orientation: Cellular ATP, detected with luciferase, serves as a proxy for viable cell number.

Assay [3] has as its system SR Immunoblastic Large Cell Leukemia cells. The assay is described as follows: Cancer Proliferation Assay (3H-thymidine uptake), SR. To be noted: 3 days, 3H-TdR uptake. The protocol: as §1
The test system of another assay is NCI-H522 (NSCLC). As to the kind of experiment: Solid Tumor Cell Line Proliferation Assay, NCI-H522. To be noted: Homo sapiens; NCI-H522, 72 hr, Cell Titer Glo. The protocol:
as §2

Assay [4] concerns HepG2 (Hepatocellular carcinoma). The assay is described as follows: Solid Tumor Cell Line Proliferation Assay, HepG2. The following applies: Homo sapiens; HepG2, 72 hr, Cell Titer Glo.
Experimental: Cells in log phase growth were seeded in a 96-well plate at 2500 cells/well in 50 uL medium and incubated at 37° C., 5% CO2 overnight. […] Following a 72 hr incubation at 37° C., 5% CO2. The CellTiter-Glo Luminescent Cell Viability Assay (ProMega Corp) was performed according to the manufacturer's instructions. Briefly following a 30 min room temperature incubation 100 uL CELLTiter Glo reagent was added to each well and mixed for 2 minutes. Luminescence was recorded following a 10 minute room temperature incubation using a PerkinElmer Microbeta luminescence counter. IC50 was determined by EXCel Fit 4.2.1.
Assay [5] relates to MOLT-4 Acute Lymphoblastic T cell leukemia cells. As to the kind of experiment: Cancer Proliferation Assay (3H-thymidine uptake), MOLT-4. To be noted: Homo sapiens; MOLT-4, 3 days, 3H-TdR uptake. As for the experimental part: as §1
A further assay deals with HOP-92 (NSCLC). The assay is described as follows: Solid Tumor Cell Line Proliferation Assay, HOP-92. The following applies: Homo sapiens; HOP-92, 72 hr, Cell Titer Glo. As for the experimental part:
as §2

The next assay concerns A549 (NSCLC). As to the kind of experiment: Solid Tumor Cell Line Proliferation Assay, A549. To be noted: Homo sapiens; A549, 72 hr, Cell Titer Glo. The protocol:
as §2

The next assay deals with NCI-H460 (NSCLC). As to the kind of experiment: Solid Tumor Cell Line Proliferation Assay, NCI-H460. To be noted: Homo sapiens; NCI-H460, 72 hr, Cell Titer Glo. As for the experimental part: as §2
The subject of a further assay is NCI-H226 (NSCLC). As to the kind of experiment: Solid Tumor Cell Line Proliferation Assay, NCI-H226. The following applies: Homo sapiens; NCI-H226, 72 hr, Cell Titer Glo. As for the experimental part: as §2
Another assay deals with HOP-62 (NSCLC). As to the kind of experiment: Solid Tumor Cell Line Proliferation Assay, HOP-62. To be noted: Homo sapiens; HOP-62, 72 hr, Cell Titer Glo. As for the experimental part:
as §2

Another assay concerns NCI-H23 (NSCLC). The assay is described as follows: Solid Tumor Cell Line Proliferation Assay, NCI-H23. The following applies: Homo sapiens; NCI-H23, 72 hr, Cell Titer Glo. As for the experimental part: as §2
The next assay has as its system NCI-H322M (NSCLC). The assay is described as follows: Solid Tumor Cell Line Proliferation Assay, NCI-H322M. To be noted: Homo sapiens, 72 hr, Cell Titer Glo. As for the experimental part: as §2
For assay [6], the system named is CCRF-CEM Lymphoblastic T cell leukemia cells. The assay is described as follows: Cancer Proliferation Assay (3H-thymidine uptake), CCRF-CEM. The following applies: Homo sapiens, 3 days, 3H-TdR uptake. The protocol:
as §1

Assay [7] concerns K562 Chronic Myelogenous leukemia cells. As to the kind of experiment: Cancer Proliferation Assay (3H-thymidine uptake), K562. The following applies: Homo sapiens; K562, 3 days, 3H-TdR uptake. The protocol: as §1

≈ marks a conversion by molar mass, not a printed value.

Consider `Nc1ncnc2c1ncn2[C@@H]1O[C@H](COP(=O)(O)OP(=O)(O)O)[C@@H](O)[C@H]1O` [ADP, reference compound], for which the “Akt activation (phosphorylation), agent alone” value (from here on “Akt activation … agent alone”) in [1] was “no activation observed”.
As a reminder, the IC50 is the midpoint of a concentration-inhibition curve. With `CC1=NN(c2ccc(C)c(C)c2)C(=O)/C1=N\Nc1cccc(-c2cccc(C(=O)O)c2)c1O` [Compound A, 3′-[(2Z)-[1-(3,4-dimethylphenyl)-1,5-dihydro-3-methyl-5-oxo-4H-pyrazol-4-ylidene]hydrazino]-2′-hydroxy-[1,1′-biphenyl]-3-carboxylic acid], the 50% inhibitory concentration (IC50) was about 6 µg/mL (≈ 13.6 µM) in the assay on HepG2 cells; 5.9 µg/mL (≈ 13.3 µM) in [2]; 12.7 µg/mL (≈ 28.7 µM) with EKVX (NSCLC); 0.77 µg/mL (≈ 1.74 µM) in assay [3]; 5.9 µg/mL (≈ 13.3 µM) in the assay on NCI-H522 (NSCLC); 5.61 µg/mL (≈ 12.7 µM) in [4]. Besides, the IC50 came to 0.56 µg/mL (≈ 1.27 µM) in assay [5]; 13.5 µg/mL (≈ 30.5 µM) in the assay on HOP-92 (NSCLC); 9.1 µg/mL (≈ 20.6 µM) in the assay on A549 (NSCLC); 5.7 µg/mL (≈ 12.9 µM) in the assay with NCI-H460 (NSCLC); 11 µg/mL (≈ 24.9 µM) in the assay on NCI-H226 (NSCLC); 10.6 µg/mL (≈ 24 µM) with HOP-62 (NSCLC). The IC50 in the assay on NCI-H23 (NSCLC) was determined as 13.9 µg/mL (≈ 31.4 µM); with NCI-H322M (NSCLC), 8.3 µg/mL (≈ 18.8 µM); in assay [6] it was 0.74 µg/mL (≈ 1.67 µM); in assay [7] it was 1.8 µg/mL (≈ 4.07 µM). The “Akt activation … agent alone” value in assay [1] is on record as “no activation was observed”.
“TPO: recombinant human thrombopoietin obtained from R&D Systems, Inc.”: in [1] (13 minutes alone followed by 2 minutes with ADP, Compound A 10 mM), the “Akt activation in combination with ADP (preincubation with agent)” value was “significant enhancement of activation of Akt”. Besides, in [1], the “Akt activation … agent alone” value was “significant Akt activation”.

These data come from patent publication US8637563B2, “Non-peptide thrombopoietin receptor agonist in the treatment of cancer and pre-cancerous syndromes” (GlaxoSmithKline LLC, priority 2007, dated 2014).
